According to PMC6270917, “Study on the Mechanism of Intestinal Absorption of Epimedins A, B and C in the Caco-2 Cell Model” (Molecules, 2014):
Where two headings read alike, the source gives them in different places.

What was measured:
Caco-2 cell monolayers = system: Caco-2 cell monolayers; parameters: method as in PMID 11145220; conditions: cited from earlier work
[1] = Bidirectional transport (A-B and B-A) across Caco-2 cell monolayers; type: in vitro ADME; conditions: human; for efflux ratio at 5 h, 20 µM / efflux ratio at 5 h: Caco-2, pH 7.4; for efflux ratio at 5 h, 20 µM: 20 μM epimedin, no inhibitor, read-out: efflux ratio (PBA/PAB), control without inhibitor; for efflux ratio at 5 h / Papp A→B at 5 h / Papp B→A at 5 h: concentrations of 5–40 μM; for efflux ratio at 5 h: read-out: efflux ratio (PBA/PAB); for Papp A→B at 5 h / Papp B→A at 5 h: Caco-2, HBSS pH 7.4; for Papp A→B at 5 h: A-B direction, read-out: absorptive permeability (PAB); for Papp B→A at 5 h: B-A direction, read-out: secretory permeability (PBA)
Method: The Caco-2 TC7 cell line (at passage 30) is generally similar to the wild-type Caco-2 cell line. […] The conditions for Caco-2 cell culture have been described previously. Cells were cultured in a humidified atmosphere of 5% CO2 and 95% air at 37 °C. The culture medium (Dulbecco’s modified Eagle’s medium ) was supplemented with 10% (v/v) fetal bovine serum, 1% nonessential amino acids, 100 U/mL penicillin, and 100 µg/mL streptomycin. When the cell culture reached 80% confluence, it was rinsed with phosphate-buffered saline and split using trypsin. For transport experiments, the cells were seeded on 3 μm porous polycarbonate cell culture Transwell® inserts from Nunc, which has a surface area of 4.2 cm^2 at a density of 100,000 cells/cm^2. The culture media was replaced every other day. The monolayers were ready for experiments from 19 to 21 days after seeding. Transepithelial electrical resistance (TEER) was used to monitor the integrity and tight junction of the Caco-2 cell monolayer.
Epimedin A, epimedin B, and epimedin C were dissolved in dimethyl sulfoxide (DMSO)-ethanol (v/v = 6/4) to prepare the stock solution (8 mM) for each single compound. The above-mentioned solutions were further diluted with HBSS solution (pH = 7.4) to obtain a series of working standard solutions, and the final concentrations of epimedin A, epimedin B, and epimedin C in the transport samples were 5 µM, 10 µM, 20 µM and 40 µM, respectively. Moreover, the final concentrations of the organic solvent of different samples were controlled below 0.5% to ensure the safety to the cells.
(§1) The transport experiments were performed as described previously. Firstly, the cell monolayers were rinsed thrice with 37 °C HBSS (pH 7.4), and the monolayers were incubated with the buffer for 1 h, then the incubation medium was aspirated. Afterwards, transport from the apical side (AP) to basolateral side (BL): 2.9 mL drug solution were added to the AP side (which was regarded as donor side) and 2.5mL HBSS were added to the BL side (which was regarded as receiver side). Transport from the basolateral side to apical side: 2.9 mL drug solution were added to the BL (donor) side and 2.5 mL HBSS were added to the AP (receiver) side. When the transport inhibitors were used, they were loaded only at the donor side. In the test for each solution, four donor samples (400 μL) and four receiver samples (400 μL) were taken at time intervals of 2, 3, 4, and 5 h after incubation, followed by an immediate replacement with fresh donor solution (400 μL) to the donor side or fresh buffer (400 μL) to the receiver side.
(§2) To each transport sample (400 µL), acetonitrile (100 µL) containing 100 µM of testosterone was added as an internal standard and preservation. The resulting mixture was vortexed for 30 sec and then centrifuged at 15,000 rpm for 15min. The supernatant obtained was determined by ultra-performance liquid chromatography (UPLC) within 24 h. At the end of the transport experiment, the TEER value was remeasured to confirm the integrity of the cell monolayer.
UPLC was used to determine the concentration of the compounds in the transport samples obtained from the Caco-2 model. The conditions for UPLC analysis of epimedin A, epimedin B, and epimedin C in the presence of inhibitors (verapamil or MK571) were as follows: system, Waters Acquity^TM UPLC with photodiode array detector and Empower software; column, Acquity UPLC BEH C18, 1.7 μm, 2.1 × 50 mm (Waters, Milford, MA, USA); mobile phase A, acetonitrile; mobile phase B, water; gradient, 0 to 0.5 min, 25% A, 0.5 to 1.0 min, 25% to 60% A, 1.0 to 2.5 min, 60% to 80% A, 2.5 to 3 min, 80% to 25% A; flow rate, 0.4 mL/min; wavelength, 270 nm (epimedin A, epimedin B and epimedin C), 283nm (MK571), 278 nm (verapamil) and 245 nm (testosterone); column temperature, 30 °C; and injection volume, 5 μL. […]

[2] = system: multidrug resistance proteins (MRPs); experiment: Caco-2 transport in the presence of MK571 (MRP inhibitor); type: in vitro ADME, human; conditions: 20 μM epimedin, 50 μM MK571
Method: (§3) Meanwhile, verapamil was dissolved in water to 2 mM as well as MK571 and dipyridamole were dissolved in dimethyl sulfoxide (DMSO)-ethanol (v/v = 1/1) to prepare the stock solution (10 mM) when they were used. In addition, testosterone (internal standard) was dissolved in acetonitrile with acetic acid (v/v = 94/6) to 100 µM.
as §1, §2
(§4) UPLC was used to determine the concentration of the compounds in the transport samples obtained from the Caco-2 model. The conditions for UPLC analysis of epimedin A, epimedin B, and epimedin C in the presence of inhibitors (verapamil or MK571) were as follows: system, Waters Acquity^TM UPLC with photodiode array detector and Empower software; column, Acquity UPLC BEH C18, 1.7 μm, 2.1 × 50 mm (Waters, Milford, MA, USA); mobile phase A, acetonitrile; mobile phase B, water; gradient, 0 to 0.5 min, 25% A, 0.5 to 1.0 min, 25% to 60% A, 1.0 to 2.5 min, 60% to 80% A, 2.5 to 3 min, 80% to 25% A; flow rate, 0.4 mL/min; wavelength, 270 nm (epimedin A, epimedin B and epimedin C), 283nm (MK571), 278 nm (verapamil) and 245 nm (testosterone); column temperature, 30 °C; and injection volume, 5 μL.
(§5) In the Caco-2 cell model, rate of transport is obtained from amount transported versus time curve using linear regression. […] The rate of drug transport was calculated by linear regression analysis using Microsoft Excel software (Microsoft Corporation, Redmond, WA, USA ). All data were presented as means ± SD. Statistical comparisons were evaluated by ANOVA test using the SPSS 16 software. Results were considered significant at p < 0.05.

[3] = biological target: T1, breast cancer resistance protein (BCRP) (Homo sapiens, UniProt Q9UNQ0); experiment: Caco-2 transport in the presence of dipyridamole (BCRP inhibitor); type: in vitro ADME; conditions: 20 μM epimedin
T1 construct: endogenous in cells; host or cells: Caco-2 TC7 cell monolayers
T1 sequence (Q9UNQ0 1-655): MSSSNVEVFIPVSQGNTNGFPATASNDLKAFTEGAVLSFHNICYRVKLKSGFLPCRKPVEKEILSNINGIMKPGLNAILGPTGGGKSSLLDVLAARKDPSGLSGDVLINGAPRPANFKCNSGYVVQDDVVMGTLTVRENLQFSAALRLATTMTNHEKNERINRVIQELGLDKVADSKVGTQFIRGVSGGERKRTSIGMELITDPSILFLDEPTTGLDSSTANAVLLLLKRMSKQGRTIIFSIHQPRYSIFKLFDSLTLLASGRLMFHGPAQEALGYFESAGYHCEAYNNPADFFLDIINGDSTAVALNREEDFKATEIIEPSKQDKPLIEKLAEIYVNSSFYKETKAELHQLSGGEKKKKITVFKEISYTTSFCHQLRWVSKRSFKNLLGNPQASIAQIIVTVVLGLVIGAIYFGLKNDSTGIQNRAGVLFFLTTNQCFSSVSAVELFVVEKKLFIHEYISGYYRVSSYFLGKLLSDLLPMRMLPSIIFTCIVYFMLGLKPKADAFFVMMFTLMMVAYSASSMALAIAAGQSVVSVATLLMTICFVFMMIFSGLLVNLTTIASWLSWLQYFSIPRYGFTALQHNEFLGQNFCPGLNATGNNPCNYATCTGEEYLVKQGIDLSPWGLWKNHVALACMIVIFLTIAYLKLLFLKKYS
Method: as §3, §1, §2
While analysis the samples in the presence of another inhibitor (dipyridamole), the conditions were as follows: system and column were the same as before; mobile phase A, 90% acetonitrile, 10%water; mobile phase B, 10% acetonitrile, 90% water containing 0.015% (v/v) formic acid and 0.02% (v/v) triethylamine (pH 3.0); gradient, 0–0.3 min, 95% B, 0.3–2.9 min, 95%–65% B, 3.8 min, 0% B, 3.8–4.5 min, 0%–95% B; flow rate, 0.4 mL/min; wavelength, 270 nm (epimedin A, epimedin B and epimedin C), 285 nm (dipyridamole) and 245 nm (testosterone,); column temperature, 30 °C; and injection volume, 5 μL.
as §5

P-glycoprotein (P-gp) = biological target: T2, P-glycoprotein (P-gp) (Homo sapiens, UniProt P08183); experiment: Caco-2 transport in the presence of verapamil (P-gp inhibitor); type: in vitro ADME; conditions: 20 μM epimedin; for efflux ratio at 5 h, 20 µM: human
T2 construct: endogenous in cells; host or cells: Caco-2 TC7 cell monolayers
T2 sequence (P08183 whole entry): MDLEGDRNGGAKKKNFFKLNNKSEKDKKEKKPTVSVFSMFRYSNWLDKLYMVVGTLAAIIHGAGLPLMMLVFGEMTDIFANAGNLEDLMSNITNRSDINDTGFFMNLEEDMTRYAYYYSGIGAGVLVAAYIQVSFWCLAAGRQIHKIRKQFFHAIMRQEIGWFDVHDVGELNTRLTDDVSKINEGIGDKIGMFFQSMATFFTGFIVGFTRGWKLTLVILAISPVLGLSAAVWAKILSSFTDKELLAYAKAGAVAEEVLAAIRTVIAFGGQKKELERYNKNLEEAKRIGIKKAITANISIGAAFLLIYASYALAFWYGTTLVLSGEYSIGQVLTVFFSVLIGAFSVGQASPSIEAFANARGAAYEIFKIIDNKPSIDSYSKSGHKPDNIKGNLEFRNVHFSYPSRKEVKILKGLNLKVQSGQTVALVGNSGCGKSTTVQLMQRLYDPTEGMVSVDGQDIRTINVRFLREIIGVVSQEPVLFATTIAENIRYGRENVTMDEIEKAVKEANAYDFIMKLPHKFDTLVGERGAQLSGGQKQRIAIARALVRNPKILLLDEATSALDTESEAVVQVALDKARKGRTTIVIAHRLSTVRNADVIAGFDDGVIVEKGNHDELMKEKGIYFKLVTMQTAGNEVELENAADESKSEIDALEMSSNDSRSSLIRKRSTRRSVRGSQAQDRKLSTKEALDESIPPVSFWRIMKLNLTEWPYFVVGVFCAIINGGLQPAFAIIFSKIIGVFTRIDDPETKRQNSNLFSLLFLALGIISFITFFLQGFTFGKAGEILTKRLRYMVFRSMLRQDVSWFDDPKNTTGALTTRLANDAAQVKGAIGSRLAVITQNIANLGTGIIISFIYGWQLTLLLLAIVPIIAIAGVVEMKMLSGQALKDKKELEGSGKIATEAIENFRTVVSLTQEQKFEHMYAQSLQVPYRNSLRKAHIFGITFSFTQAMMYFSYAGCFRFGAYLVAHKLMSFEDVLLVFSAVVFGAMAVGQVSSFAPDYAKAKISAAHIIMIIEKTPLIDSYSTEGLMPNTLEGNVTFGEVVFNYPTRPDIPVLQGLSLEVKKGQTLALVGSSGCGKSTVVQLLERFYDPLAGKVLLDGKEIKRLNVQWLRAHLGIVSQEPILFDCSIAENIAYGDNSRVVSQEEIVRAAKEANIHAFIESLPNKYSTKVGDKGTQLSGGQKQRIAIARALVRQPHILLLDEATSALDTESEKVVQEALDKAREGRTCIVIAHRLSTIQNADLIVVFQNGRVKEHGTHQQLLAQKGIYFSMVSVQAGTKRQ
Method: as §3, §1, §2, §4, §5

Caco-2 cells = experiment: MTT cell viability assay; type: cell-based, human; conditions: for reduction of cell viability rate of Caco-2 cells: 80 μM (highest concentration), 36 h, vs control; for cytotoxicity to the growth of Caco-2 cells: 10-80 μM
Method: Cell viability was measured using the 3-(4, 5-dimethylthiazol-2-yl)-2,5-diphenyltetrazolium bromide (MTT) assay. The Caco-2 cells were seeded in 96-well plates at a density of 2 × 10^3 cells/well in DMEM culture medium and cultured at 37 °C for 24 h. After that, the culture medium was replaced with fresh medium containing epimedins A, B, and C at concentrations ranging from 10 μM to 80 μM. Control groups consist of cells in medium (without epimedins A, B, and C) which are processed identically and incubated simultaneously as treated groups. And then the 96-well plates were incubated for 36 h. Subsequently, 10 μL of 5 mg/mL MTT was added to each well and the plates were incubated for another 4 h. The solutions in each well were then removed followed by dissolving the remained formazan crystals in the cells with 100 μL DMSO. The absorbance was measured at 550 nm using a microplate reader (Thermo Labsystems, Helsinki, Finland). The cell viability of each compound was calculated as the percentage of the absorbance relative to that of negative control.

| efflux ratio at 5 h, 20 µM [1] | efflux ratio at 5 h [1] | Papp A→B at 5 h [1] | Papp B→A at 5 h [1] | effect on PAB and PBA (transport) [2] | reduction of efflux ratio [2] | reduction of PBA ([3]; 50 μM dipyridamole) | reduction of efflux ratio ([3]; 50 μM dipyridamole) | reduction of PBA (P-glycoprotein (P-gp); 50 μM verapamil) | Compound | permeability of poorly absorbed compound (Caco-2 cell monolayers) | reduction of cell viability rate of Caco-2 cells (Caco-2 cells) | cytotoxicity to the growth of Caco-2 cells (Caco-2 cells) | other results |
| --- | --- | --- | --- | --- | --- | --- | --- | --- | --- | --- | --- | --- | --- |
|  |  |  |  |  |  |  |  |  | O=C(O)c1cc(/N=N/c2ccc(S(=O)(=O)Nc3ccccn3)cc2)ccc1O [sulfasalazine] | 0.34 × 10^−6 |  |  |  |
| 2.04 | > 2 | 0.42 to 0.72 ×10⁻⁶ cm/s | 1.29 to 1.89 ×10⁻⁶ cm/s | did not alter | 13% | 38% | 47% | 22% | COc1ccc(-c2oc3c(CC=C(C)C)c(OC4O[C@H](CO)[C@@H](O)[C@H](O)[C@H]4O)cc(O)c3c(=O)c2OC2O[C@@H](C)[C@H](O)[C@@H](O)[C@H]2O[C@@H]2O[C@H](CO)[C@@H](O)[C@H](O)[C@H]2O)cc1 (stereo partly drawn) [epimedin A] |  | 7% | nontoxic | increase of PAB ([3]; 50 μM dipyridamole): 1.2 fold; PAB relative to control group (P-glycoprotein (P-gp); 50 μM verapamil): 1.5 fold; efflux ratio at 5 h, 20 µM (P-glycoprotein (P-gp); Caco-2, pH 7.4, with verapamil 50 µM, 50 μM verapamil, read-out: efflux ratio in the presence of verapamil): 1.03 |
|  |  |  |  |  |  |  |  |  | OC[C@@H](O)[C@@H](O)[C@H](O)[C@H](O)CO [mannitol] | 1.7e-06 cm/s |  |  |  |
|  | > 2 | 0.42 to 0.72 ×10⁻⁶ cm/s | 1.2 to 2.28 ×10⁻⁶ cm/s | did not significantly influence |  | 27% |  | 17% | COc1ccc(-c2oc3c(CC=C(C)C)c(O[C@@H]4O[C@H](CO)[C@@H](O)[C@H](O)[C@H]4O)cc(O)c3c(=O)c2O[C@@H]2O[C@@H](C)[C@H](O)[C@@H](O)[C@H]2O[C@@H]2O[C@@H](C)[C@H](O)[C@@H](O)[C@H]2O)cc1 [epimedin C] |  | 7% | nontoxic | increase in absorptive permeability (PAB) ([3]; 50 μM dipyridamole): 43%; fold reduction of efflux ratio at 5 h, 20 µM ([3]; human, Caco-2, pH 7.4, with dipyridamole (concentration not stated for this group), dipyridamole): ~1.95; increase in absorptive permeability (PAB) (P-glycoprotein (P-gp); 50 μM verapamil): 109%; efflux ratio at 5 h, 20 µM (P-glycoprotein (P-gp); Caco-2, pH 7.4, with verapamil (concentration not stated for this group), verapamil, read-out: reduction of efflux ratio): ~2.5 |
| 1.98 | > 2 | 0.39 to 0.73 ×10⁻⁶ cm/s | 1.19 to 1.76 ×10⁻⁶ cm/s | increased | 32% |  | 50% |  | COc1ccc(-c2oc3c(CC=C(C)C)c(O[C@@H]4O[C@H](CO)[C@@H](O)[C@H](O)[C@H]4O)cc(O)c3c(=O)c2O[C@@H]2O[C@@H](C)[C@H](O)[C@@H](O)[C@H]2O[C@@H]2OC[C@@H](O)[C@H](O)[C@H]2O)cc1 [epimedin B] |  | 7% | nontoxic | effect on absorptive permeability ([3]; 50 μM dipyridamole): increased significantly; effect on secretory permeability ([3]; 50 μM dipyridamole): significantly decreased; efflux ratio at 5 h, 20 µM ([3]; human, Caco-2, pH 7.4, with dipyridamole 50 µM, 50 μM dipyridamole): 1.02; effect on PAB and PBA (P-glycoprotein (P-gp); verapamil): increased; reduction of efflux ratio (P-glycoprotein (P-gp); verapamil): 31% |
